{"source": "patent EP4385508A1", "about": "“FURAN FATTY ACIDS FOR ENHANCING MUSCLE MASS” (Centre de Coopération Internationale en Recherche …, priority 2022, dated 2024)", "key": {"[1]": {"test_system": "myosin heavy chain (MyHC)", "assay": "Slow and fast MyHC protein levels by Western blot in C2C12 myotubes", "type": "cell-based, Mouse", "procedure": "(§1) Mouse myoblasts of the C2C12 cell line (ATCC) were seeded at a plating density of 7000 cells/cm2 in 6-well plates. They were grown in DMEM high glucose (4.5g/l) supplemented with gentamycin (50 µg/mL), amphotericin (50 µg/mL), and fetal calf serum (10%). Terminal differentiation was induced at cell confluence by lowering the medium serum concentration (0.5%).\n(§2) When indicated, FuFA-F2 was added to the culture medium at the indicated concentration. For the differentiation studies, FuFA-F2 was added at the confluence at the same time as the change in media condition. Three doses of FuFA-F2 were studied at a final concentration of 1, 10, or 50 µM. Human insulin was used at a concentration of 100 nM.\nProtein levels were assessed by Western blotting. Total proteins were measured using the Bio-Rad protein assay (Hercules, CA, USA) according to the manufacturer's instructions. Total proteins were lysed in RIPA buffer (20mM Tris, 150mM NaCl, 1mM EDTA, 1% NP40, pH 7.5 + complete cocktail protease inhibitors + Pierce phosphatase inhibitors tablet). 40 µg of cell extracts were loaded and blotted onto a nitrocellulose membrane. The membranes were washed, blocked with 5% nonfat milk and incubated in primary antibody overnight at 4°C. […]\n(Figure 5A), commonly used as a quantitative marker of intact mitochondria. […]"}, "C57BL/6J mice": {"test_system": "C57BL/6J mice", "assay": "High Fat and High Sucrose (HFHS) diet with FuFA-F2, quadriceps muscle mass", "type": "in vivo", "settings": "12 weeks", "procedure": "Forty six-weeks old male C57BL/6J mice (Charles River, L'Arbresle, France), weighing about 21 g, were housed (5 per cage) under conditions of constant temperature (20-22°C), humidity (45-50%) and a standard dark cycle (20.00-08.00 hours). The mice were randomized, according to their initial weight, into four groups of ten animals and fed for 12 weeks with one of the four following semi-purified diets: 1) control diet, 2) HFHS diet, 3) HFHS + FuFA-F2 (0.048%, 40mg/kg body weight/day), 4) HFHS + FuFA-F2 (0.127%, 105mg/kg body weight/day). In this example, \"FuFA-F2\" is the triacylglycerol form of FuFA-F2.\nThe control diet contains 5% lipids as a mixture of rapeseed oil, high oleic sunflower oil, sunflower oil and linseed oil (oil mixture of Carrefour), the high fat high sucrose (HFHS) diets contain 25% lipids (5% of a mixture of rapeseed oil, high oleic sunflower oil, sunflower oil and linseed oil and 20% of lard) and 30% sucrose. The detailed composition of the diets is given in Table 1 at the end of the present description. […]\nThroughout the study, mice were given free access to food and tap water. Mice body weight was followed weekly and food consumption was determined every two days (during the week) or three days (the week-end). […]\nResults were expressed as means ± SD. […]"}, "ULK1": {"test_system": "ULK1", "assay": "ULK1 phosphorylation and total level by Western blot in C2C12 myotubes", "type": "cell-based, Mouse", "settings": "highest dose (50 µM)", "procedure": "as §1, §2\nProtein levels were assessed by Western blotting. Total proteins were measured using the Bio-Rad protein assay (Hercules, CA, USA) according to the manufacturer's instructions. […]\nAMP activated protein kinase (AMPK) is a crucial cellular energy sensor protein and is activated when intracellular ATP level decreases to regulate autophagy initiation (Hardie et al., 2012, Nat Rev Mol Cell Bio, Vol. 13 (4) : 251-262). […] The autophagy-related signaling was further evaluated by measuring the MTORC1 mediated phosphorylation […] at Ser757 which disrupts the interaction between ULK1 and AMPK. […] Therefore, the autophagic flux was assessed by measuring the conversion of LC3-I to LC3-II, through lipidation."}}}
{"smiles": "CCCCCc1cc(C)c(CCCCCCCCC(=O)O)o1", "note": "[FuFA-F2]", "values": [{"measurement": "expression of slow MyHC", "setting": "[1]; 10 µM", "result": "significantly increased"}, {"measurement": "fast MyHC", "setting": "[1]; highest dose (50 µM)", "result": "decrease"}, {"measurement": "quadriceps muscle mass", "setting": "C57BL/6J mice; HFHS diet + FuFA-F2 (triacylglycerol form) at any dose (40 and 105mg/kg body weight/day), compared to HFHS alone", "result": "increased"}, {"measurement": "quadriceps muscle mass", "setting": "C57BL/6J mice; highest dose 105mg/kg body weight/day by comparison to lowest dose 40mg/kg body weight/day, HFHS diet, triacylglycerol form", "result": "significantly increased"}, {"measurement": "ULK1 phosphorylation at Ser757", "setting": "ULK1", "result": "decreased"}, {"measurement": "total Ulk level", "setting": "ULK1", "result": "also decreased"}]}
